The values that follow come from article PMC8920304, “Potent Inhibition of Human Cytochrome P450 3A4 by Biflavone Components from Ginkgo Biloba and Selaginella Tamariscina” (Frontiers in Pharmacology, 2022).

The structures appear in SMILES notation.

Data set [1] deals with T1, CYP3A4 (Homo sapiens, UniProt P08684).
T1 construct: The primary incubation mixture contains HLM, potassium phosphate buffer; from tissue; host or cells: human liver microsomes (HLM)
As to the kind of experiment: Inhibition of NEN 4-hydroxylation in human liver microsomes (fluorescence high-throughput screening). In kind it is in vitro ADME. The settings on record: HLM, NEN probe, mean ± S.D. (n = 3); read-out: IC50 against CYP3A4 (NEN 4-hydroxylation). The protocol:
The primary incubation mixture contains HLM, potassium phosphate buffer (pH 7.4, 100 mM), G-6-P (10 mM), G-6-P dehydrogenase (1 U/ml), MgCl2 (4 mM), NEN (50 µM), extracts of herbal medicine (20 µg/ml), or components. The incubation duration and HLM protein concentrations were 30 min and 0.05 mg/ml, respectively. The reaction was initiated by the addition of NADP^+ and terminated by the addition of 100 µL ice-cold acetonitrile (ACN). NEN 4-hydroxylation were utilized as the probe reaction for CYP3A4, and fluorescence image of 96-well microplates were measured by a fluorescent image analyzer (GE Amersham Typhoon, Sweden) under the excitation wavelength of 488 nm (E m: 570 ± 15 nm). The formation of NEHN was evaluated by the quantitative analysis of fluorescence signal for individual wells of microplates using the equipment supporting software. The percentage residual activity was calculated from percentage relative value of NEHN formation rate.
For orientation: Liver microsomes are vesicles of endoplasmic reticulum, rich in cytochrome P450 enzymes.

In data set [2] the target is T1, CYP3A4. As to the kind of experiment: Inhibition kinetic characterization with NEN 4-hydroxylation in HLM. In kind it is in vitro ADME. The settings on record: for Type of inhibition: NEN 4-hydroxylation; for Ki: NEN 15-150 µM, 30 min; for ɑ (degree to which inhibitor binding influences enzyme-substrate binding): mixed-inhibition model. The protocol: Varying concentrations of DGK, GK, IGK, and AMF incubated for 30 min with varying concentrations of NEN (15–150 µM). The high-throughput screening assay was performed, and the inhibition curve was fitted with GraphPad Prism (Version 8.0). The inhibition type was confirmed based on the R square of the following four equations and the Dixon and Lineweaver–Burk plots. The inhibition constant (K i) values were determined using the equations for competitive inhibition (Eq. 1), noncompetitive inhibition (Eq. 2), uncompetitive inhibition (Eq. 3), and mixed inhibition (Eq. 4). v=VmaxS/Km(1+I/Ki)+S (1) v=VmaxS/(Km+S)(1+I/Ki) (2) v=VmaxS/S(1+I/Ki)+Km (3) v=VmaxS/Km(1+I/Ki)+S(1+I/αKi) (4)

The target in data set [3] is T1, CYP3A4. Put plainly: Inhibition of CYP3A4-mediated oxidation of clinical drugs (tamoxifen, gefitinib, ticagrelor) in HLM, LC-MS/MS. In kind it is in vitro ADME. The settings on record: 30 min, ± SD. The protocol: Varying concentrations of DGK, GK, IGK, and AMF incubated for 30 min with gefitinib (10 μM), tamoxifen (20 μM), ticagrelor (30 μM), respectively ([Wang et al., 2020]). The ExionLC AD HPLC system consisted of an autosampler, a quaternary delivery system and a degasser. The chromatograph was equipped with a Luna Omega PS C18 (2.1 × 100 mm, 3 μm) analytical column, and the mobile phase consisted of 0.1% formic acid aqueous solution (A) and ACN (B), and were conducted with a 0.30 ml/min flow rate as follow for the gradient program: 0–1.5 min (10–10% B), 1.5–3.0 min (10–45% B), 3.0–5.0 min (45–90% B). An AB MDS Sciex QTRAP 5500 Mass Spectrometer equipped with an ESI source was used to analyze the target substances. The positive mode was used with N-demethylated tamoxifen (358.0→58.0) and defluorinated gefitinib (445.0→128.0). The relative parameters were set as follows: ion spray voltage, 5500 V; temperature, 550°C; curtain gas (CUR) flow, […]; gas1 and gas2 (nitrogen), 45 and 55 psi. The negative mode was used with dehydroxyethoxylated ticagrelor (477.2→361.1). The relative parameters were set as follows: ion spray voltage, -4500 V; temperature, 550°C; curtain gas flow, […]; gas1 and gas2, 50 and 50 psi. For other parameters, please refer to Supplementary Table S1 in the supplementary data.

The target of data set [4] is T1, CYP3A4. Details: method as in Ning et al., 2019. The settings on record: HLM; ref Ning et al., 2019; cited from earlier work.
Setting [5] is: gefitinib 10 μM, defluorination, read-out: IC50 toward gefitinib.
The mark [6] stands for this setting: tamoxifen 20 μM, N-demethylation, read-out: IC50 toward tamoxifen.
The mark [7] stands for this setting: ticagrelor 30 μM, dehydroxyethoxylation, read-out: IC50 toward ticagrelor.

T1 sequence (P08684 whole entry): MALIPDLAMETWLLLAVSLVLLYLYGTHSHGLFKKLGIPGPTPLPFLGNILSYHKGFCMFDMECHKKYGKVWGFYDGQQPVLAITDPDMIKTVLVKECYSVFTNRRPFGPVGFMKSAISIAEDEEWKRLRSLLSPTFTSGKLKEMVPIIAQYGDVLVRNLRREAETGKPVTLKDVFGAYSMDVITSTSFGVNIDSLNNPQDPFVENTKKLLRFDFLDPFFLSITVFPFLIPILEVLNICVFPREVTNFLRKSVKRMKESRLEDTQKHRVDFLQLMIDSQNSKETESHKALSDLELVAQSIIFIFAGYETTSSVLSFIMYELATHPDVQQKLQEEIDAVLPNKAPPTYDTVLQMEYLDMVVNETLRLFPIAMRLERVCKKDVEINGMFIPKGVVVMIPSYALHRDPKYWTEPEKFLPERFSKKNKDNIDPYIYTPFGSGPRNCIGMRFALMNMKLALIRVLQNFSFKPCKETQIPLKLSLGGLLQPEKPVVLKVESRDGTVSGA

As to `O=c1cc(-c2ccc(O)c(-c3c(O)cc(O)c4c(=O)cc(-c5ccc(O)cc5)oc34)c2)oc2cc(O)cc(O)c12` [AMF, Amentoflavone], the IC50 in data set [1] is 186 ± 4 nM; in data set [3] (setting [5]) it was 5200 ± 527 nM; in data set [3] (setting [6]), 2720 ± 93 nM; in data set [3] (setting [7]), 2920 ± 47 nM. Also, in data set [2], the Type of inhibition entry is “mixed reversible inhibition”. The same compound yielded a Ki in data set [2] of 101 ± 30 nM. For the same compound, in data set [2], the “ɑ (degree to which inhibitor binding influences enzyme-substrate binding)” value was 5.55.

In the case of `Cc1ccc(-c2c(-c3nn(C)c4ncnc(N5CC[C@H](N6CCCCC6)C5)c34)cnn2C)cc1` [CYP3cide], the “Inhibition of C4-hydroxylation of NEN in human liver microsomes (in words)” value in data set [4] is on record as “strongly inhibited”.

As to `COc1ccc(-c2cc(=O)c3c(O)cc(O)cc3o2)cc1-c1c(O)cc(O)c2c(=O)cc(-c3ccc(O)cc3)oc12` [DGK, bilobetin], the IC50 in data set [1] stood at 162 ± 22 nM; in data set [3] (setting [5]) it was 1720 ± 1 nM; in data set [3] (setting [6]), 1020 ± 88 nM; in data set [3] (setting [7]) it was 3500 ± 34 nM. The Type of inhibition entry in data set [2] is reported as “mixed reversible inhibition”. The inhibition constant (Ki) in data set [2] amounted to 70 ± 18 nM. In addition, in data set [2], the “ɑ (degree to which inhibitor binding influences enzyme-substrate binding)” value stood at 2.98.

`COc1cc(O)c2c(=O)cc(-c3ccc(OC)c(-c4c(O)cc(O)c5c(=O)cc(-c6ccc(O)cc6)oc45)c3)oc2c1` [GK, ginkgetin]: the concentration for half-maximal inhibition (IC50) was determined as 106 ± 4 nM in data set [1], 869 ± 1 nM in data set [3] (setting [5]), 478 ± 3 nM in data set [3] (setting [6]) and 1610 ± 39 nM in data set [3] (setting [7]). Further, the Type of inhibition result in data set [2] is “mixed reversible inhibition”. For the same compound, affinity in data set [2] was put at a Ki of 34 ± 7 nM. Also, in data set [2], the “ɑ (degree to which inhibitor binding influences enzyme-substrate binding)” value came out at 4.56.

`COc1ccc(-c2cc(=O)c3c(O)cc(O)c(-c4cc(-c5cc(=O)c6c(O)cc(O)cc6o5)ccc4OC)c3o2)cc1` [IGK, isoginkgetin]: the IC50 turned out to be 982 ± 6 nM in data set [1], 13100 ± 415 nM in data set [3] (setting [5]), 4660 ± 236 nM in data set [3] (setting [6]) and 10200 ± 382 nM in data set [3] (setting [7]). The Type of inhibition result in data set [2] is given as “mixed reversible inhibition”. The affinity in data set [2], expressed as Ki, was 278 ± 87 nM. For the same compound, the “ɑ (degree to which inhibitor binding influences enzyme-substrate binding)” value in data set [2] came to 2.79.

What is called IC50 is the concentration that inhibits the measured activity by half. For orientation: Ki means the dissociation constant of the complex between target and ligand, obtained from inhibition or displacement. Higher therefore signals weaker binding.
